Tested on: sébocytes humains immortalisés en culture, issus de la lignée SZ95
Experiment: Lipogenesis: total lipids produced by cultured immortalised human sebocytes (Nile Red fluorescence)
Format: cell-based
Settings: for activation at 10 µM / activation at 1 µM: 48 h, total lipids, variation versus control, 2 days of treatment, confluent SZ95 sebocytes; for activation at 10 µM: 10^-5 M in 0,1% DMSO, read-out: % de variation à 10^-5 M; for activation at 1 µM: 10^-6 M in 0,1% DMSO, read-out: % de variation à 10^-6 M
Description: La 7α-OH DHEA et la 3-O-acétyl 7-benzoyloxy DHEA ont été testées sur un modèle de sébocytes humains immortalisés en culture, issus de la lignée SZ95 décrite dans Zouboulis, C.C., Seltmann, H., Neitzel, H. & Orfanos, C.E., Establishment and Characterization of an Immortalized Human Sebaceous Gland Cell Line, J. Invest. Dermatol., 113, 1011-1020 (1999).
Le test a consisté à mesurer la quantité de lipides produite par les sébocytes de la lignée (à confluence), en présence ou non d'agents actifs dilués dans le DMSO à 10^-5 M et 10^-6 M, de telle sorte que la quantité finale de DMSO dans le milieu de culture soit de 0,1%. Après 2 jours de traitement, les cellules adhérentes sont traitées par du Rouge de Nile (1µg/ml). Le contenu en lipides est ensuite quantifié par mesure de la fluorescence du colorant (deux couples d'excitation/émission : 485-540nm pour les lipides neutres et 540-620 nm pour les lipides non neutres). Les résultats sont donnés pour les lipides totaux (combinaison des deux mesures).
L'expérience est réalisée en sixplicate (produits dosés) ou dodeplicate (témoin) en plaque de 96 puits.
Le Tableau ci-dessous rassemble les résultats obtenus, en pourcentage de variation par rapport au témoin, ainsi que les coefficients p fournis par le test de Student et qui reflètent la significativité des mesures.

SMILES | activation at 10 µM [%] | activation at 1 µM [%] | lipogénèse (result in words, 10^-6 M)
CC(=O)O[C@H]1CC[C@@]2(C)C(=CC(OC(=O)c3ccccc3)[C@@H]3[C@@H]2CC[C@]2(C)C(=O)CC[C@@H]32)C1 (some centres unmarked) [3-O-acétyl 7-benzoyloxy DHEA] | 15 | 15 | efficace
C[C@]12CC[C@H](O)CC1=C[C@@H](O)[C@@H]1[C@@H]2CC[C@]2(C)C(=O)CC[C@@H]12 [7α-OH DHEA] | 15 | 6 | 

— patent publication EP1366743A1, “Use of a derivative of 7-oxydated DHEA for treating dry skin” (L'OREAL, priority 2002, dated 2003)
